# Biological target: URAT-1 transporter (Homo sapiens (Human), UniProt Q96S37)
# Experiment: URAT-1 inhibitor activity: [14C]-uric acid uptake in CHO-URAT1(L)GFP#8 (CHO#8) cells, scintillation proximity
# Type: cell-based
# Details: inhibition of [14C]-uric acid (30 nM) uptake into CHO#8 cells; compound 0 to 10 μM; 4 parameter logistic fit
# Procedure, shortened: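 CHO cells stably expressing human URAT1 long isoform–eGFP fusion, pre-incubated 1 h in chloride-containing buffer pH 7.4, then given 30 nM [14C]-uric acid with compound (0–10 μM, 0.25% DMSO) in chloride-free gluconate buffer pH 7.4. Uptake measured by scintillation proximity on Cytostar plates.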
row,Compound,IC50 [nM]
1,"N#Cc1cc(S(=O)(=O)Nc2ccc(F)cn2)ccc1Oc1ccc(OC(F)(F)F)cc1 [Example 35, 3-cyano-N-(5-fluoropyridin-2-yl)-4-[4-(trifluoromethoxy)phenoxy]benzenesulfonamide]",> 10000
2,"N#Cc1cc(S(=O)(=O)Nc2ccc(F)cn2)ccc1Oc1ccccc1C(F)(F)F [Example 51, 3-cyano-N-(5-fluoropyridin-2-yl)-4-[2-(trifluoromethyl)phenoxy]benzenesulfonamide]",171
3,"CSc1ccccc1Oc1ccc(S(=O)(=O)Nc2ccc(F)cn2)cc1C#N [Example 146, 3-cyano-N-(5-fluoropyridin-2-yl)-4-[2-(methylsulfanyl)phenoxy]benzenesulfonamide]",506
4,"N#Cc1cc(S(=O)(=O)Nc2ccc(F)cn2)ccc1Oc1cc(F)ccc1Cl [Example 176, 4-(2-chloro-5-fluorophenoxy)-3-cyano-N-(5-fluoropyridin-2-yl)benzenesulfonamide]",1020
5,"N#Cc1cc(S(=O)(=O)Nc2ccc(F)cn2)ccc1Oc1ccc(Cl)c(F)c1 [Example 55, 4-(4-chloro-3-fluorophenoxy)-3-cyano-N-(5-fluoropyridin-2-yl)benzenesulfonamide]",129
6,N#Cc1ccc(Oc2cc(F)c(S(=O)(=O)Nc3cccnn3)cc2Cl)cc1Cl [compound 227],> 10000
7,"N#Cc1ccc(Oc2ccc(S(=O)(=O)Nc3cc(F)ccn3)cc2C#N)cc1Cl [Example 104, 4-(3-chloro-4-cyanophenoxy)-3-cyano-N-(4-fluoropyridin-2-yl)benzenesulfonamide]",15
8,"N#Cc1cc(S(=O)(=O)Nc2ccc(F)cn2)ccc1Oc1ccc(F)c(Cl)c1 [Example 78, 4-(3-chloro-4-fluorophenoxy)-3-cyano-N-(5-fluoropyridin-2-yl)benzenesulfonamide]",19
9,"N#Cc1ccc(Oc2ccc(S(=O)(=O)Nc3ccnnc3)cc2C#N)cc1Cl [Example 94, 4-(3-chloro-4-cyanophenoxy)-3-cyano-N-(pyridazin-4-yl)benzenesulfonamide]",> 10000
10,"N#Cc1cc(S(=O)(=O)Nc2ccc(F)cn2)ccc1Oc1c(F)ccc(F)c1F [Example 134, 3-cyano-N-(5-fluoropyridin-2-yl)-4-(2,3,6-trifluorophenoxy)benzenesulfonamide]",> 10000
11,"N#Cc1cc(S(=O)(=O)Nc2cccnn2)ccc1Oc1ccc(Cl)cc1OC(F)F [Example 86, 4-[4-chloro-2-(difluoromethoxy)phenoxy]-3-cyano-N-(pyridazin-3-yl)benzenesulfonamide]",> 5330
12,"COc1ncc(Oc2ccc(S(=O)(=O)Nc3ccc(F)cn3)cc2C#N)cc1Cl [Example 70, 4-[(5-chloro-6-methoxypyridin-3-yl)oxy]-3-cyano-N-(5-fluoropyridin-2-yl)benzenesulfonamide]",25
13,"N#Cc1cc(Cl)cc(Oc2ccc(S(=O)(=O)Nc3ccc(F)cn3)cc2C#N)c1 [Example 62, 4-(3-chloro-5-cyanophenoxy)-3-cyano-N-(5-fluoropyridin-2-yl)benzenesulfonamide]",27
14,"Cc1ccc(F)cc1Oc1ccc(S(=O)(=O)Nc2ccc(F)cn2)cc1C#N [Example 21, 3-cyano-4-(5-fluoro-2-methylphenoxy)-N-(5-fluoropyridin-2-yl)benzenesulfonamide]",84
15,"N#Cc1cc(S(=O)(=O)Nc2ccc(F)cn2)ccc1Oc1cc(F)cc(F)c1Cl [Example 32, 4-(2-chloro-3,5-difluorophenoxy)-3-cyano-N-(5-fluoropyridin-2-yl)benzenesulfonamide]",212
16,"N#Cc1cc(Oc2cc(F)c(S(=O)(=O)Nc3ncccn3)cc2Cl)ccc1F [Example 225, 5-chloro-4-(3-cyano-4-fluorophenoxy)-2-fluoro-N-(pyrimidin-2-yl)benzenesulfonamide]",2330

row,Compound,IC50 [nM]
1,"Cc1ccc(C(C)C)cc1Oc1ccc(S(=O)(=O)Nc2ccc(F)cn2)cc1C#N [Example 174, 3-cyano-N-(5-fluoropyridin-2-yl)-4-[2-methyl-5-(propan-2-yl)phenoxy]benzenesulfonamide]",> 10000
2,"COc1ccc(C)c(Oc2ccc(S(=O)(=O)Nc3ccc(F)cn3)cc2C#N)c1 [Example 200, 3-cyano-N-(5-fluoropyridin-2-yl)-4-(5-methoxy-2-methylphenoxy)benzenesulfonamide]",53
3,O=S(=O)(Nc1ncc(F)cn1)c1cc(Cl)c(Oc2ccc(F)c(F)c2)cc1F [compound 212],> 10000
4,"Cc1ccc(Oc2ccc(S(=O)(=O)Nc3ccc(F)cn3)cc2C#N)cc1Cl [Example 22, 4-(3-chloro-4-methylphenoxy)-3-cyano-N-(5-fluoropyridin-2-yl)benzenesulfonamide]",209
5,"COc1ccc(Oc2ccc(S(=O)(=O)Nc3ccc(F)cn3)cc2C#N)cc1C#N [Example 66, 3-cyano-4-(3-cyano-4-methoxyphenoxy)-N-(5-fluoropyridin-2-yl)benzenesulfonamide]",135
6,"N#Cc1cc(S(=O)(=O)Nc2ccc(F)cn2)ccc1Oc1cc(Cl)ccc1Cl [Example 170, 3-cyano-4-(2,5-dichlorophenoxy)-N-(5-fluoropyridin-2-yl)benzenesulfonamide]",570
7,"N#Cc1cc(S(=O)(=O)Nc2ccc(F)cn2)ccc1Oc1c(Cl)cccc1C#N [Example 73, 4-(2-chloro-6-cyanophenoxy)-3-cyano-N-(5-fluoropyridin-2-yl)benzenesulfonamide]",418
8,"N#Cc1cc(S(=O)(=O)Nc2ccc(F)cn2)ccc1Oc1ccc(F)c(F)c1Cl [Example 167, 4-(2-chloro-3,4-difluorophenoxy)-3-cyano-N-(5-fluoropyridin-2-yl)benzenesulfonamide]",50
9,"Cc1cc(Cl)cc(Oc2ccc(S(=O)(=O)Nc3ccc(F)cn3)cc2C#N)c1 [Example 15, 4-(3-chloro-5-methylphenoxy)-3-cyano-N-(5-fluoropyridin-2-yl)benzenesulfonamide]",135
10,4-{4-chloro-2-[D3-methyloxy]phenoxy}-3-cyano-N-(pyridazin-3-yl)benzenesulfonamide [Example 82],409
11,"N#Cc1ccc(Oc2ccc(S(=O)(=O)Nc3ccc(F)cn3)cc2F)cc1F [Example 97, 4-(4-cyano-3-fluorophenoxy)-3-fluoro-N-(5-fluoropyridin-2-yl)benzenesulfonamide]",> 1670
12,"Cc1cc(Cl)cc(Oc2ccc(S(=O)(=O)Nc3ccc(F)cn3)cc2C#N)c1C [Example 159, 4-(5-chloro-2,3-dimethylphenoxy)-3-cyano-N-(5-fluoropyridin-2-yl)benzenesulfonamide]",514
13,"N#Cc1cc(S(=O)(=O)Nc2ccc(F)cn2)ccc1Oc1ccc(Cl)cc1I [Example 58, 4-(4-chloro-2-iodophenoxy)-3-cyano-N-(5-fluoropyridin-2-yl)benzenesulfonamide]",287
14,"Cc1cc(Cl)c(Oc2ccc(S(=O)(=O)Nc3ccc(F)cn3)cc2C#N)cc1C [Example 136, 4-(2-chloro-4,5-dimethylphenoxy)-3-cyano-N-(5-fluoropyridin-2-yl)benzenesulfonamide]",> 10000
15,"COc1cc(F)c(F)cc1Oc1ccc(S(=O)(=O)Nc2ccc(F)cn2)cc1C#N [Example 144, 3-cyano-4-(4,5-difluoro-2-methoxyphenoxy)-N-(5-fluoropyridin-2-yl)benzenesulfonamide]",40
16,N#Cc1cc(S(=O)(=O)Nc2ncccn2)ccc1Oc1ccc(F)c(F)c1 [compound 211],> 3000
